One assay relates to RAW264.7 cells. The assay is described as follows: Phagocytosis of macrophages by flow cytometry. It is filed as cell-based. Particulars: co-cultivation, vs control group. Here is the method: RAW264.7 cells (1.5 × 10^5 cells/well) and HepG2 cells (4 × 10^5 cells/well) were incubated in a Tissue Culture Plate Insert (LABSELECT, Hangzhou, China) at 37 °C and 95% humidity. Raw264.7 cells were incubated in 12-well plates, and HepG2 cells were incubated in Transwell chambers. After 24 h, the cells were treated with the compound for 48 h. Then, the chamber was discarded, and RAW264.7 cells were washed twice with PBS and a fresh medium. Next, 1.5 mL/well and 100 μL/well FluoSpheresTM carboxylate (Invitrogen, Carlsbad, CA, USA) were added to the medium for 2 h in the dark. Cells were washed twice with PBS, harvested, and then resuspended in 0.5 mL PBS. Finally, the cells were measured by a FACSCalibur (Becton Dickinson, Franklin Lakes, NJ, USA). Data were analyzed using FlowJo software.

A further assay deals with T1, Na+-K+-ATPase (Homo sapiens, UniProt P05023).
T1 construct: endogenous in cells; host or cells: HepG2 (sonicated lysate supernatant)
The assay is described as follows: Na+-K+-ATPase enzyme activity detection kit. The format is biochemical. As to conditions: HepG2 cells. As to the method: HepG2 cells were collected in centrifuge tubes, and every 5 million cells were added to 1 mL reagent to sonicate the cells (power 20%, ultrasound 3S, interval 10 s, repeat 30 times). Then, the samples were centrifuged at 8000 rpm/min for 10 min at 4 °C. The supernatant was then collected and placed on ice for testing. The operation was performed according to the instructions of the Na^+-K^+-ATPase enzyme activity detection kit (Solarbio, Beijing, China).

Another assay has as its system Huh-7 cells. The assay is described as follows: MTT assay, cell viability of Huh-7 cells. It is filed as cell-based. Particulars: Homo sapiens, Huh-7, read-out: Huh-7 IC50. An excerpt: 2. The anti-proliferation of compound 5 on Huh-7 cells
We tested another hepatoma cell line (Huh-7) to validate effect of compound 5. L02 (normal hepatocytes), HepG2 and Hub-7 cells were used to discuss the effect of 5. […]
of 5 on Huh-7 cell was (24.49±[…]) μM (Table S1). The morphology and apoptosis of the cells by reversed microscope and flow cytometry, respectively.
Second, the expression and phosphorylation of ATP1A1 were detected by Western blot analysis in L02, HepG2 and Huh-7 cells. Compared with L02 group, the expression of ATP1A1 was higher in HepG2 and Huh-7 cells, but there was no significant difference in the phosphorylation of ATP1A1 (Figure […]
At last, the effect of 5 on the expression and the phosphorylation of ATP1A1 in Huh-7 cells was […]
the phosphorylation of ATP1A1. The result was consistent with that observed in HepG2 cells (Figure […]
Table S1 Cell viability of Huh-7 cell treated by compound 5

The subject of the next assay is ROS in HepG2 cells. Kind of assay: H2DCFDA staining of ROS. The format is cell-based. An excerpt: The occurrence of apoptosis is characterized by morphological events and the activation of apoptotic signaling pathways. Herein, we detected the apoptosis events of HepG2 cells by fluorescence staining and Western blotting. […] Apoptosis-related proteins, such as Bax, cleaved caspase 3, and cleaved caspase 8, were increased, and Bcl-2 was decreased (Figure 2B).
Figure 2 Compound 5 promoted the apoptosis of HepG2 cells. (A) Fluorescence image of cell apoptosis in HepG2 cells. The cells were double stained with Annexin V and PI. Early apoptotic cells were stained with Annexin V, and late apoptotic cells were stained with PI. (B) HepG2 cells were treated with Compound 5 (25 μmol∙L^−1) for 24 h, and the protein expression was detected by western blot. (C) Fluorescence image of ROS in HepG2 cells. (D) HepG2 cells were treated with Compound 5 (25 μmol∙L^−1) for 24 h, and autophagy-related protein expression and AKT/mTOR were detected by western blotting. Data are expressed as the mean ± standard deviation. * p < 0.05, ** p < 0.01, *** p < 0.001 vs. the control group.

Assay [1] deals with Bax, cleaved caspase 3, cleaved caspase 8, Bcl-2, LC3-B, p62, AKT/mTOR in HepG2 cells. The assay is described as follows: Western blot of apoptosis- and autophagy-related proteins in HepG2 cells. It is filed as cell-based. Particulars: HepG2, 25 μmol∙L−1, 24 h. As to the method: Protein samples were prepared using a RIPA lysis buffer. The concentration of the protein was analyzed using a nucleic acid and protein microanalyzer (Molecular Devices, San Jose, CA, USA). SDS–PAGE was performed to separate the proteins, which were then electrotransferred onto a PVDF membrane. The membrane was incubated with antibodies at 4 °C overnight. Next, the membrane was washed and incubated with an HRP-conjugated secondary antibody (Beyotime, BeiJing, China). Finally, signals were detected by the ECL method (Beyotime, BeiJing, China) and analyzed using ImageJ software.

The test system of another assay is HepG2 cells. Kind of assay: MTT assay, cell viability of HepG2 cells. It is filed as cell-based. Particulars: Homo sapiens, HepG2, 48 h. Here is the method: HepG2 cells (1 × 10^4 cells/well) or RAW264.7 cells ([…]) were incubated in 96T wells for 24 h. Then, HepG2 cells were treated with compounds or Adriamycin for 48 h. In addition, RAW264.7 cells were treated with compounds for 24 h. Then, 0.5% MTT (Sigma, Saint Louis, MO, USA) was added to 20 μL/well for 3.5 h. The supernatant was discarded, and DMSO (150 μL/well) was added to dissolve the purple formazan. Cells were agitated for 15 min at room temperature, and the absorbance at 490 nm was recorded by SpetraMax M2 (Molecular Devices, San Jose, CA, USA).

A further assay in a line: CETSA binding assay. As to conditions: 50 μmoL−1, western blot. Here is the method:
Figure 4 Compound 5 promoted the endocytosis and degradation of ATP1A1. (A) HepG2 cells were treated with 12.5 μmol∙L^−1 or 25 μmol∙L^−1 5 for 48 h, and the lysosomal co-localization assay was performed with a confocal laser. (B) Cells exposed to 25 μmol∙L^−1 5 for 12 h or 24 h were detected by fluorescence staining. (C) 5 is depicted in red, and the chains of Na^+, K^+-ATPase α/β/γ are represented by light blue, cyan-blue, and magenta, respectively. The crystallography, atomic coordinates, and structure factors have been deposited in the Protein Data Bank, www.pdb.org (accessed on 1 February 2023) (PDB ID code 3KDP). (D) The CETSA binding assay of ATP1A1 and β-actin in the presence or absence of 5 (50 μmoL^−1) at different temperatures was detected by western blot. The temperature-dependent melting curves and the apparent aggregation temperature were calculated by nonlinear regression. Values represent the mean ± SEM (N = 3 replicates).

As for `C[C@H](O)[C@]1(O)CC[C@@]2(O)[C@]1(C)[C@H](OC(=O)/C=C/c1ccccc1)C[C@@H]1[C@@]3(C)CC[C@H](O[C@H]4C[C@H](O)[C@H](O)[C@@H](C)O4)CC3=CC[C@]12O` [Compound 5, Cynsaccatol L], the “phagocytic ability of macrophages” value in the assay on RAW264.7 cells is on record as “significantly upregulated”. Besides, on Na+-K+-ATPase, the “activity of NAK (Na+-K+-ATPase)” value is recorded as “inhibited”. In addition, the half-maximal inhibitory concentration (IC50) in the assay on Huh-7 cells is 24.5 ± 2.33 µM. In addition, the ROS levels result with ROS in HepG2 cells is listed as “significantly increased”. Also, in assay [1], the “Bax, cleaved caspase 3 and cleaved caspase 8 protein expression” value is on record as “increased”; the Bcl-2 protein expression entry is given as “decreased”; the “expression of LC3-B and p62” value was “upregulating”; the “phosphorylation of AKT and mTOR” value is listed as “inhibited”. Also, the IC50 with HepG2 cells came out at 12.6 ± 2.13 µM. Also, the “denaturation temperature of β-actin (CETSA)” value in the assay “CETSA binding assay” is given as “did not change”.
